# Laboratory results reported in PMC7757078, “Comparative in vitro analysis of inhibition of rhinovirus and influenza virus replication by mucoactive secretolytic agents and plant extracts” (BMC Complementary Medicine and Therapies, 2020).
# Where a name gives a salt, the structure may show the parent alone. Read-outs that look alike come from different tables or passages of the source. Marks after values point to notes of the source that are not given here.
# Columns and labels:
# HeLa Ohio cells = assay: Cytotoxicity determination in HeLa Ohio cells (crystal violet, 72 h); assay type: cell-based, human; details: for 50% Cytotoxic concentration in HeLa cells, Mean: 72 h
# Method: HeLa Ohio and MDCK cells were seeded at 1.6 × 10^4 and 2.3 × 10^4 cells/well in 100 μL growth medium in 96 well flat-bottomed microtiter plates, respectively. The cytotoxicity of the test compounds and extracts was determined on two-day-old confluent cell monolayers grown in the internal 60 wells of a microtiter plate (5% carbon dioxide, 37 °C). After removal of the growth medium, 50 μL of test medium and eight half-log dilutions of the reference compounds pleconaril or zanamivir, or eight half-log dilutions of test items in test medium (each concentration in duplicates) were added. The concentration range of reference compounds applied to cytotoxicity assays was 0.0316–100 μM. […] Six cell control wells were incubated with 100 μL test medium. After 72 h of incubation at 37 °C in 5% carbon dioxide atmosphere, the Dynex Immuno Assay System (Guernsey, UK), developed for automated ELISA techniques, was applied to gently wash, stain, measure, and analyze the viability of the cell monolayers based on optical density determination. After aspiration of supernatant, cell monolayers were washed three times with 300 μL physiological phosphate-buffered saline to remove death cells. The remaining cells were fixed and stained with 50 μL of 0.07% crystal violet (w/v), 20% ethanol, 3% formalin solution in water for 10 min. Six washings with 300 μL of water followed to remove excess stain. Before measuring the optical density, we solubilized the crystal violet by adding 100 μL lysis buffer (0.898 g of sodium citrate and 1.25 mL of 1 N HCl in 98.05 mL 47.5% ethanol) for 20 min. The absorbances were red at two wavelengths (550 and 690 nm). Cell viability in a well was defined as the percentage of the mean value of optical density resulting from the six cell controls, which was set 100% cell viability. The inhibitor concentration that reduces the mean value of optical density determined for cell controls by half is called 50% cytotoxic concentration (CC50). A minimum of three independent experiments were performed.
# rhinovirus B14 [1] = assay: CPE inhibitory assay with rhinovirus B14 in HeLa Ohio cells; assay type: cell-based; details: for CPE inhibition at non-cytotoxic concentrations: 0.0316–100 μM
# [2] = test system: influenza virus A/Jena/8178/09; details: for CPE inhibition at non-cytotoxic concentrations: 0.0316–100 μM; for CPE inhibition at non-cytotoxic concentrations / Effect on influenza virus A/Jena/8178/09-induced CPE (in words): MDCK cells; for Effect on influenza virus A/Jena/8178/09-induced CPE (in words): non-cytotoxic concentrations
# [3] = test system: influenza virus A/Hong Kong/68; details: for CPE inhibition at non-cytotoxic concentrations: 0.0316–100 μM; for Effect on influenza virus A/Hong Kong/68-induced CPE (in words): non-cytotoxic concentrations
# rhinovirus B14 [4] = details: 3-day pretreatment of primary human tracheal epithelial cells; cited from earlier work
# rhinovirus A2 = assay: CPE inhibitory assay with rhinovirus A2 in HeLa Ohio cells; details: for CPE inhibition at non-cytotoxic concentrations: 0.0316–100 μM, HeLa Ohio cells
# [5] = following the application of 600 mg; cited from earlier work
# [6] = test system: rhinovirus (stored under rhinovirus A2; the sentence does not specify which rhinovirus); assay: in vitro; details: human
# [7] = test system: influenza virus A/Jena/8178/09; assay: Hemagglutination inhibition assay with human erythrocytes; design: species or system influenza A virus (H1N1pdm09); details: 4 hemagglutination units, maximum test concentration 1 μM
# Method: (§1) The negative control (no hemagglutination) consists only 50 μL phosphate-buffered saline (n = 8). […] We added 50 μL of a 1% human erythrocytes solution to each well of the microplate. After a two-hour incubation at 4 °C, we recorded the lowest compound concentration that induces hemagglutination or inhibits virus-mediated hemagglutination (minimum hemagglutination or hemagglutination inhibitory concentration, respectively).
# human erythrocytes = assay: Hemagglutination by test item in the absence of virus; details: maximum test concentration 1 μM
# Method: as §1
# viral neuraminidase = details: 37 °C for 24 h
# Method: Thereafter, we incubated the assays at 37 °C for further 24 h allowing viral neuraminidase activation [43]. The activated viral neuraminidase abrogates the virus-mediated hemagglutination in absence of inhibitors (hemagglutination control) or in the presence of ineffective inhibitor concentrations. Neuraminidase inhibitors prevent this abrogation of virus-mediated hemagglutination.
# [8] = test system: influenza virus A/Jena/8178/09; assay: organism not typed; details: MDCK, read-out: 50% Inhibitory concentration against Influenza A viruses Jena/8178, Mean
# [9] = test system: influenza virus A/Hong Kong/68; assay: organism not typed; details: MDCK, read-out: 50% Inhibitory concentration against Influenza A viruses HK/68, Mean
# [10] = test system: influenza virus A/Hong Kong/68; assay: Time-of-addition plaque-reduction assay in MDCK cells; details: pelargonium extract 50 μg/mL, zanamivir 1 μM
smiles,measurement,setting,value
"Nc1c(Br)cc(Br)cc1CN[C@H]1CC[C@H](O)CC1 [Ambroxol, ambroxol]","50% Cytotoxic concentration in HeLa cells, Mean",HeLa Ohio cells; HeLa Ohio cells,61.24 µM
same,"50% Cytotoxic concentration in HeLa cells, Mean","HeLa Ohio cells; HeLa Ohio cells, listed as ambroxol",51.85 µM
same,CPE inhibition at non-cytotoxic concentrations,rhinovirus B14 [1],< 50%
same,"50% Cytotoxic concentration in MDCK cells, Mean","MDCK cells; MDCK cells, 72 h",> 100^a μM
same,CPE inhibition at non-cytotoxic concentrations,[2],less than 50%
same,Effect on influenza virus A/Jena/8178/09-induced CPE (in words),[2],did not show any effect
same,CPE inhibition at non-cytotoxic concentrations,[3]; MDCK cells,less than 50%
same,Effect on influenza virus A/Hong Kong/68-induced CPE (in words),[3]; MDCK cells,did not show any effect
same,Concentration reducing the titer of rhinovirus B14 in the supernatant,rhinovirus B14 [4],at least 0.1 μM
same,CPE inhibition at non-cytotoxic concentrations,rhinovirus A2,< 50%
"CN(Cc1cc(Br)cc(Br)c1N)C1CCCCC1 [Bromhexine, bromhexine hydrochloride]","50% Cytotoxic concentration in HeLa cells, Mean",HeLa Ohio cells; HeLa Ohio cells,51.85 µM
same,"50% Cytotoxic concentration in HeLa cells, Mean","HeLa Ohio cells; HeLa Ohio cells, listed as bromhexine",61.24 µM
same,CPE inhibition at non-cytotoxic concentrations,rhinovirus B14 [1],< 50%
same,Cytotoxic concentration in MDCK cells,MDCK cells; MDCK cells,100 µM
same,"50% Cytotoxic concentration in MDCK cells, Mean","MDCK cells; MDCK cells, 72 h",51.29 µM
same,CPE inhibition at non-cytotoxic concentrations,[2],less than 50%
same,CPE inhibition at non-cytotoxic concentrations,[3]; MDCK cells,less than 50%
same,Reduction of influenza virus A/Hong Kong/68-induced CPE,"[3]; at 31.6 μM, MDCK cells",30%
same,CPE inhibition at non-cytotoxic concentrations,rhinovirus A2,< 50%
CC(=O)N[C@@H](CS)C(=O)O [N-acetylcysteine],"50% Cytotoxic concentration in HeLa cells, Mean",HeLa Ohio cells; HeLa Ohio cells,> 100^a μM
same,Cytotoxicity in HeLa Ohio cells (in words),HeLa Ohio cells; tested concentration range,non-cytotoxic
same,"50% Cytotoxic concentration in MDCK cells, Mean",MDCK cells,> 100^a μM
same,CPE inhibition at non-cytotoxic concentrations,[2],less than 50%
same,Effect on influenza virus A/Jena/8178/09-induced CPE (in words),[2],did not show any effect
same,CPE inhibition at non-cytotoxic concentrations,[3]; MDCK cells,less than 50%
same,Effect on influenza virus A/Hong Kong/68-induced CPE (in words),[3]; MDCK cells,did not show any effect
same,Maximal plasma concentration,[5],about 16 μM
"Cc1cc(CCCOc2c(C)cc(-c3noc(C(F)(F)F)n3)cc2C)on1 [Pleconaril, pleconaril]",Concentration above which a marked dose-dependent cytotoxic effect was seen,HeLa Ohio cells; HeLa Ohio cells,higher than 10 μM
same,"50% Cytotoxic concentration in HeLa cells, Mean",HeLa Ohio cells; HeLa Ohio cells,28.75 µM
same,IC50,"rhinovirus B14 [1]; n.a. = not active up to the maximum non-cytotoxic concentration, read-out: 50% Inhibitory concentration against Rhinoviruses B14, Mean",25 nM
same,selectivity ratio,[6],> 3500
same,IC50,"rhinovirus A2; HeLa, read-out: 50% Inhibitory concentration against Rhinoviruses A2, Mean",8 nM
"CC(=O)N[C@H]1[C@H]([C@H](O)[C@H](O)CO)OC(C(=O)O)=C[C@@H]1N=C(N)N [Zanamivir, zanamivir]",Inhibition of virus-mediated hemagglutination (in words),[7],neither mediated nor inhibited
same,Induction of hemagglutination (in words),human erythrocytes,neither mediated nor inhibited
same,"50% Cytotoxic concentration in MDCK cells, Mean","MDCK cells; MDCK cells, 72 h",> 100^a μM
same,Cytotoxicity in MDCK cells (in words),MDCK cells; tested concentrations,well tolerated
same,Selectivity index against Influenza A viruses Jena/8178,[2],"> 14,285"
same,Selectivity index against Influenza A viruses HK/68,[3],"> 12,500"
same,Minimal neuraminidase inhibitory concentration,viral neuraminidase,0.03 µM
same,IC50,[8],7 nM
same,IC50,[9],8 nM
same,"Plaque production, treatment during adsorption",[10]; 4 °C for 2 h,did not prevent
same,"Plaque production, pre-treatment of cells",[10]; 1 h at 37 °C before infection,did not prevent
same,"Plaque production, pre-treatment of virus",[10]; 1 h at 37 °C before infection,did not prevent
same,"Plaque production, treatment after adsorption",[10]; in agar overlay for 72 h,completely blocked
same,"Plaque production, treatment during and after adsorption",[10],completely blocked
